Reference: patent publication US20230002334A1, “TRPM8 MODULATORS” (Givaudan SA, priority 2019, published 2023)
Like-named read-outs stand apart in the source and are kept apart here.

How the values were obtained:
[1] = system: panelists (mouth, mucosa); experiment: Sensory studies in aqueous solution (trained panel, swilling in the mouth); type: in vivo, human; details: 40 ppm in aqueous solution; for time of max cooling / Max. cooling: 20 mL swilled 60 seconds; for Max. cooling / Cooling after 1 h: averaged panel score on scale 0 to 10; for Cooling after 1 h: 1 h after swilling
Procedure: The compounds as listed below in Table 2 were dissolved at a concenteration of 1 wt-% in propylene glycol. These solutions were then dispensed in appropriate quantities into deionized water containing 0.5 wt-% Poloxamer 407 (which is a hydrophilic non-ionic surfactant, e.g., commercially available from SigmaAldrich) and 0.25 wt-% Cremaphor® RH40 (obtained from BASF) as solubilizer, to obtain the desired final concentration of 40 ppm (parts per milion) of the respective compound.
A trained group of panelists evaluated the aqueous solutions containing test compound by swilling 20 mL of the solution in the mouth for 60 seconds, followed by spitting, without rinsing the mouth afterwards for the duration of the evaluation. Panelists evaluated and recorded the cooling performance as well as other sensorial and organoleptic attributes at different timepoints over a period of two hours. Cooling performance was rated on a scale from 0 to 10 with 0 being no effect and 10 being freezing. Scores were averaged for all panelists and the cooling intensity qualified as “N” for “none” (score of 0), “L” for “low” (score above 0, up to 1), “M” for “medium” (score above 1, up to 4), “S” for “strong” (score above 4, up to 8) and “E” for “extreme” (score above 8), which are provided in Table 2. […] All tasted samples developed cooling sensation starting during swilling (almost immediately upon contact with the mucosa) and before expectorating.

hTRPM8 = molecular target: T1, hTRPM8 (Homo sapiens, UniProt Q7Z2W7); experiment: Assay on TRPM8 modulators: calcium imaging (Fluo-4, Flexstation) in HEK293 cell line stably expressing hTRPM8; type: cell-based
T1 construct: expressed in transfected cells
T1 sequence (Q7Z2W7 whole entry): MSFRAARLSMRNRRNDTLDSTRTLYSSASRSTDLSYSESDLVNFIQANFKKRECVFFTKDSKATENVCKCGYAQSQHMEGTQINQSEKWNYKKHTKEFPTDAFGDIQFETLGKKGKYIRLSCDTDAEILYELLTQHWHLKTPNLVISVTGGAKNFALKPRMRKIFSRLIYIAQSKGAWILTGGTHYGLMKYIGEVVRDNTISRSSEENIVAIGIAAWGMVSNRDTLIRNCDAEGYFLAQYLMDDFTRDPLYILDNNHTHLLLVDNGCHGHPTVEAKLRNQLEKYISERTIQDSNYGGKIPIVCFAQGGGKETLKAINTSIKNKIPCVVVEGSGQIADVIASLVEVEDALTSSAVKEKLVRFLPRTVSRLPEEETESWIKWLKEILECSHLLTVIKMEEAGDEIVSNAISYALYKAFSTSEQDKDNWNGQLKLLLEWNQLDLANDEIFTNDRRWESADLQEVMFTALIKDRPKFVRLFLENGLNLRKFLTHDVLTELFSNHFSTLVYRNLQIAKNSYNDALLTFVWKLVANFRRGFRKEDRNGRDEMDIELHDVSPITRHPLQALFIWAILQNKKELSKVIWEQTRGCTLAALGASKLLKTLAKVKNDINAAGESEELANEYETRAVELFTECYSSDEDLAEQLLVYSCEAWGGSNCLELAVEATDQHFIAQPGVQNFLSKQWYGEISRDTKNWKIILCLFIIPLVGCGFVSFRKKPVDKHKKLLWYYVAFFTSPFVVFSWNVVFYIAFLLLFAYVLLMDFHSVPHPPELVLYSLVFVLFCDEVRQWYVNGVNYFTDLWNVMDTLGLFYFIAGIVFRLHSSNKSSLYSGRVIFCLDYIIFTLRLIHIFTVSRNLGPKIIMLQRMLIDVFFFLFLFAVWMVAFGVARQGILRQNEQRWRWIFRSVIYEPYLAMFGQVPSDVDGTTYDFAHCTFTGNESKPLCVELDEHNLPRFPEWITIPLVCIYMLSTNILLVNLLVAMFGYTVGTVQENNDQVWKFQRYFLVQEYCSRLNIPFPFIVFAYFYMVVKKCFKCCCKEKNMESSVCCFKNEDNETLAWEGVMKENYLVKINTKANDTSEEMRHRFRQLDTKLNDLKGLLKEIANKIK
Method in brief: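 Calcium influx monitored by Fluo-4 (2.7 μM with […] probenecid, 1 h 37 °C loading) in HEK293 cells stably expressing hTRPM8, in HEPES buffer pH 7.4 with 2 mM CaCl2. Fluorescence read 15 s before and 105 s after adding serial compound dilutions. Maximal activation relative to solvent and 31.6 μM menthol; EC50 from sigmoidal fit.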

panelists (mouth) = experiment: Sensory studies in model dentifrice (trained panel, tooth brushing); type: in vivo, human; details: 100 ppm in model unflavored dentifrice; for time of max cooling / Max. cooling: 1 g brushed 60 seconds; for Max. cooling / Cooling after 1 h: averaged panel score on scale 0 to 10; for Cooling after 1 h: 1 h after brushing
Procedure: The compounds listed in Table 3 were dissolved at a concenteration of 1 wt-% in propylene glycol. These solutions were then dispersed in appropriate quantities to obtain the desired final concentration of 100 ppm (parts per milion) of the test compound into a model, unflavored dentifrice, the formula of which is given below (ingredients obtained from the suppliers respectively indicated in parenthesis).
A trained group of panelists evaluated the dentifrice containing a compound of formula (I), by brushing their teeth with 1 g of the dentifrice using a toothbrush for 60 seconds, followed by spitting, without rinsing the mouth afterwards for the duration of the evaluation. Panelists evaluated and recorded the cooling performance as well as other sensorial and organoleptic attributes at different timepoints over a period of two hours. Cooling performance was rated on a scale from 0 to 10 with 0 being no effect and 10 being freezing. Scores were averaged for all panelists and the cooling intensity qualified as “N” for “none” (score of 0), “L” for “low” (score above 0, up to 1), “M” for “medium” (score above 1, up to 4), “S” for “strong” (score above 4, up to 8) and “E” for “extreme” (score above 8), which are summarized below in Table 3. […] All tasted samples developed cooling sensation starting during brushing, before expectorating.

[2] = HEK293 cells stably expressing hTRPM8, calcium influx, sigmoidal dose-response fit, read-out: EC50

C[C@H]1C[C@@](C)(c2ccccc2)C[C@@H]2[C@@H]1N(C)OC2(C)C (racemic) [Compound 48, rac-(3aR,5R,7S,7aR)-1,3,3,5,7-pentamethyl-5-phenyloctahydrobenzo[c]isoxazole]
time of max cooling [1]: 10 min
Max. cooling [1]: S (“S” for “strong” (score above 4, up to 8))
Cooling after 1 h [1]: M (“M” for “medium” (score above 1, up to 4))
EC50 (hTRPM8; [2]): 50 to 300 nM
time of max cooling (panelists (mouth)): 5 min
Max. cooling (panelists (mouth)): M (“M” for “medium” (score above 1, up to 4))
Cooling after 1 h (panelists (mouth)): L (“L” for “low” (score above 0, up to 1))

C[C@H]1C[C@@](C)(c2ccc(F)cc2)C[C@@H]2[C@@H]1N(C)OC2(C)C (racemic) [Compound 102, rac-(3aR,5R,7S,7aR)-5-(4-fluorophenyl)-1,3,3,5,7-pentamethyloctahydrobenzo[c]isoxazole]
time of max cooling [1]: 10 min
Max. cooling [1]: S (“S” for “strong” (score above 4, up to 8))
Cooling after 1 h [1]: M (“M” for “medium” (score above 1, up to 4))
EC50 (hTRPM8; [2]): < 50 nM
time of max cooling (panelists (mouth)): 10 min
Max. cooling (panelists (mouth)): M (“M” for “medium” (score above 1, up to 4))
Cooling after 1 h (panelists (mouth)): M (“M” for “medium” (score above 1, up to 4))

Cc1ccccc1[C@@]1(C)C[C@@H]2[C@@H]([C@@H](C)C1)N(C)OC2(C)C (racemic) [Compound 46, rac-(3aR,5R,7S,7aR)-1,3,3,5,7-pentamethyl-5-(o-tolyl)octahydrobenzo[c]isoxazole]
time of max cooling [1]: 10 min
Max. cooling [1]: S (“S” for “strong” (score above 4, up to 8))
Cooling after 1 h [1]: M (“M” for “medium” (score above 1, up to 4))
EC50 (hTRPM8; [2]): < 50 nM
time of max cooling (panelists (mouth)): 20 min
Max. cooling (panelists (mouth)): S (“S” for “strong” (score above 4, up to 8))
Cooling after 1 h (panelists (mouth)): M (“M” for “medium” (score above 1, up to 4))

CC[C@@H]1C[C@H](CC)[C@@H]2[C@@H](C1)C(C)(C)ON2C(C)C (racemic) [Compound 111, rac-(3aR,5R,7S,7aR)-5,7-diethyl-1-isopropyl-3,3-dimethyloctahydrobenzo[c]isoxazole]
time of max cooling [1]: 10 min
Max. cooling [1]: M (“M” for “medium” (score above 1, up to 4))
Cooling after 1 h [1]: L (“L” for “low” (score above 0, up to 1))
EC50 (hTRPM8; [2]): 300 to 1000 nM

CC1CC(C)C2C(C1)C(C)(C)ON2C (stereo not drawn) [Compound 4, 1,3,3,5,7-pentamethyloctahydrobenzo[c]isoxazole]
time of max cooling [1]: 3 min
Max. cooling [1]: M (“M” for “medium” (score above 1, up to 4))
Cooling after 1 h [1]: L (“L” for “low” (score above 0, up to 1))
EC50 (hTRPM8; [2]): 1000 to 35000 nM

CCN1OC(C)(C)C2CC(CC=C(C)C)CC(C)C21 (racemic) [Compound 120, rac-(3aS,5S,7S,7aS)-1-ethyl-3,3,7-trimethy)-5-(3-methylbut-2-en-1-yl)octahydrobenzo[c]isoxazole]
time of max cooling [1]: 10 min
Max. cooling [1]: M (“M” for “medium” (score above 1, up to 4))
Cooling after 1 h [1]: L (“L” for “low” (score above 0, up to 1))
EC50 (hTRPM8; [2]): 300 to 1000 nM

CCC[C@@H]1CC[C@@H]2[C@@H](C1)C(C)(C)ON2C(C)C (racemic) [Compound 26, rac-(3aR,5R,7aR)-1-isopropyl-3,3-dimethyl-5-propyloctahydrobenzo[c]isoxazole]
time of max cooling [1]: 10 min
Max. cooling [1]: S (“S” for “strong” (score above 4, up to 8))
Cooling after 1 h [1]: M (“M” for “medium” (score above 1, up to 4))
EC50 (hTRPM8; [2]): 300 to 1000 nM

COc1ccccc1[C@H]1C[C@@H]2[C@@H]([C@@H](C)C1)N(C)OC2(C)C (racemic) [Compound 83, rac-(3aR,5R,7S,7aR)-5-(2-methoxyphenyl)-1,3,3,7-tetramethyloctahydrobenzo[c]isoxazole]
time of max cooling [1]: 10 min
Max. cooling [1]: S (“S” for “strong” (score above 4, up to 8))
Cooling after 1 h [1]: L (“L” for “low” (score above 0, up to 1))
EC50 (hTRPM8; [2]): < 50 nM

CC(C)=CC[C@H]1C[C@@H]2[C@@H]([C@@H](C)C1)N(C)OC2(C)C (racemic) [Compound 50, rac-(3aR,5R,7S,7aR)-1,3,3,7-tetramethyl-5-(3-methylbut-2-en-1-yl)octahydrobenzo[c]isoxazole]
time of max cooling [1]: 10 min
Max. cooling [1]: M (“M” for “medium” (score above 1, up to 4))
Cooling after 1 h [1]: M (“M” for “medium” (score above 1, up to 4))
EC50 (hTRPM8): 50 to 300 nM

Cc1ccc(C#N)cc1[C@@]1(C)C[C@@H]2[C@@H]([C@@H](C)C1)N(C)OC2(C)C (stereo in doubt) [Compound 135, rac-4-methyl-3-((3aR,5R,7S,7aR)-1,3,3,5,7-pentamethyloctahydrobenzo[c]isoxazol-5-yl)benzonitrile]
time of max cooling [1]: 10 min
Max. cooling [1]: E (“E” for “extreme” (score above 8))
Cooling after 1 h [1]: M (“M” for “medium” (score above 1, up to 4))
EC50 (hTRPM8; [2]): < 50 nM
time of max cooling (panelists (mouth)): 5 min
Max. cooling (panelists (mouth)): S (“S” for “strong” (score above 4, up to 8))
Cooling after 1 h (panelists (mouth)): M (“M” for “medium” (score above 1, up to 4))

CC1=CC[C@H](C2CCC3C(C2)N(C)OC3(C)C)CC1 (stereo partly drawn) [Compound 7, 1,3,3-trimethyl-6-((R)-4-methylcyclohex-3-en-1-yl)octahydrobenzo[c]isoxazole]
time of max cooling [1]: 10 min
Max. cooling [1]: M (“M” for “medium” (score above 1, up to 4))
Cooling after 1 h [1]: L (“L” for “low” (score above 0, up to 1))
EC50 (hTRPM8; [2]): 300 to 1000 nM

CC(C)N1OC(C)(C)[C@@H]2C[C@H](c3ccccc3)C[C@H](C)[C@H]21 (racemic) [Compound 64, rac-(3aR,5R,7S,7aR)-1-isopropyl-3,3,7-trimethyl-5-phenyloctahydrobenzo[c]isoxazole]
time of max cooling [1]: 10 min
Max. cooling [1]: M (“M” for “medium” (score above 1, up to 4))
Cooling after 1 h [1]: M (“M” for “medium” (score above 1, up to 4))
EC50 (hTRPM8; [2]): 50 to 300 nM

C[C@H]1C[C@@](C)(c2cc(F)cc(F)c2)C[C@@H]2[C@@H]1N(C)OC2(C)C (racemic) [Compound 85, rac-(3aR,5R,7S,7aR)-5-(3,5-difluorophenyl)-1,3,3,5,7-pentamethyloctahydrobenzo[c]isoxazole]
time of max cooling [1]: 10 min
Max. cooling [1]: M (“M” for “medium” (score above 1, up to 4))
Cooling after 1 h [1]: M (“M” for “medium” (score above 1, up to 4))
EC50 (hTRPM8; [2]): < 50 nM

CCN1OC(C)(C)C2CC(C)(CC=C(C)C)CC(C)C21 (stereo not drawn) [Compound 9, 1-ethyl-3,3,5,7-tetramethyl-5-(3-methylbut-2-en-1-yl)octahydrobenzo[c]isoxazole]
time of max cooling [1]: 10 min
Max. cooling [1]: M (“M” for “medium” (score above 1, up to 4))
Cooling after 1 h [1]: M (“M” for “medium” (score above 1, up to 4))
EC50 (hTRPM8; [2]): 50 to 300 nM

C[C@H]1C[C@@](C)(c2cccc(C#N)c2)C[C@@H]2[C@@H]1N(C)OC2(C)C (racemic) [Compound 124, rac-3-((3aR,5R,7S,7aR)-1,3,3,5,7-pentamethyloctahydrobenzo[c]isoxazol-5-yl)benzonitrile]
time of max cooling [1]: 5 min
Max. cooling [1]: S (“S” for “strong” (score above 4, up to 8))
Cooling after 1 h [1]: M (“M” for “medium” (score above 1, up to 4))
EC50 (hTRPM8; [2]): < 50 nM
